These results are taken from PubChem BioAssay (NCI).

Test systems include ACHN renal; CCRF-CEM leukemia; HCT-116 colon; HS 578T breast; LOX IMVI melanoma; NCI/ADR-RES ovarian; SF-268 CNS; SK-MEL-5 melanoma; SK-OV-3 ovarian; T-47D breast; UACC-257 melanoma; M14 melanoma.
Holding throughout (assay): NCI anticancer screen, dose series, 48 h

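Test compounds were applied to cells in 96-well plates for 48 hours at 5 doses. TGI denotes the concentration required for complete inhibition of growth.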

Turning to `COc1ccccc1C(=O)OCC1CCCN2CCCCC12` (stereo not given), the TGI in the assay with ACHN renal is above 100 µM; in the assay on CCRF-CEM leukemia it was 46.1 µM; in the assay on HCT-116 colon, above 100 µM; with HS 578T breast it was above 100 µM; in the assay with LOX IMVI melanoma, 34.8 µM; in the assay with NCI/ADR-RES ovarian it was above 100 µM. Further, the TGI is above 100 µM in the assay with SF-268 CNS; above 100 µM with SK-MEL-5 melanoma; above 100 µM with SK-OV-3 ovarian; 81.7 µM in the assay with T-47D breast; above 100 µM with UACC-257 melanoma.
For `O=C1CN(c2cccc(C(F)(F)F)c2)C(=O)CN1CCN1CC(=O)N(c2cccc(C(F)(F)F)c2)CC1=O`, the TGI with ACHN renal, in the assay on CCRF-CEM leukemia, in the assay with HCT-116 colon, in the assay with HS 578T breast, in the assay with M14 melanoma and in the assay with NCI/ADR-RES ovarian was above 100 µM in each case. Further, the TGI in the assay on SF-268 CNS, in the assay with SK-MEL-5 melanoma, in the assay on SK-OV-3 ovarian, in the assay with T-47D breast and in the assay with UACC-257 melanoma was above 100 µM throughout.
`COC(=O)C12Oc3ccc(-c4ccc5c(c4O)C(O)=C4C(=O)CC(C)C(O)C4(C(=O)OC)O5)c(O)c3C(O)=C1C(=O)CC(C)C2O` (stereo not given): the TGI in the assay with ACHN renal is above 32.1 µM; in the assay on CCRF-CEM leukemia, 0.0848 µM; with HS 578T breast, 3.86 µM; with M14 melanoma, 0.89 µM; in the assay on NCI/ADR-RES ovarian, above 100 µM; in the assay on SF-268 CNS, 1.84 µM. For the same compound, the TGI in the assay on SK-MEL-5 melanoma is 0.147 µM; in the assay with SK-OV-3 ovarian, above 82.1 µM; in the assay with T-47D breast, above 29.1 µM; in the assay on UACC-257 melanoma it was 1.34 µM.
On to `O=C1Nc2ccc(Br)cc2/C1=N/N1C(=O)C(=O)N(C2CCCCC2)C1=S`, for which the TGI with ACHN renal was found to be 16.7 µM; with CCRF-CEM leukemia it was 16.6 µM; with HCT-116 colon, 10.8 µM; with HS 578T breast it was 23.2 µM; with LOX IMVI melanoma, 15.7 µM; in the assay with M14 melanoma, 14.6 µM. Further, the TGI worked out at 13.5 µM with NCI/ADR-RES ovarian; 30.3 µM in the assay on SF-268 CNS; 16.7 µM in the assay on SK-MEL-5 melanoma; 21.9 µM in the assay on SK-OV-3 ovarian; 9.95 µM in the assay on T-47D breast; 34.7 µM with UACC-257 melanoma.
For the compound `Nc1ccn(C2CCC(COP(=O)(O)OCC(O)COP(=O)(O)OCC3OC(n4cc(F)c(=O)[nH]c4=O)CC3O)O2)c(=O)n1` (stereo not given), the TGI with ACHN renal, with CCRF-CEM leukemia, with HCT-116 colon, in the assay on HS 578T breast, with LOX IMVI melanoma and in the assay with M14 melanoma was above 100 µM each time. In addition, the TGI in the assay with NCI/ADR-RES ovarian was above 100 µM; with SF-268 CNS, above 100 µM; with SK-MEL-5 melanoma it was above 21 µM; in the assay on SK-OV-3 ovarian, above 100 µM; in the assay on T-47D breast, above 100 µM; in the assay on UACC-257 melanoma, above 100 µM.
For `Cn1cc2c3ccccc3nc-2c2ccccc21`, the TGI with ACHN renal was found to be 5.81 µM; in the assay with CCRF-CEM leukemia it was 5.99 µM; in the assay with HCT-116 colon, 3.2 µM; in the assay on HS 578T breast, 5.3 µM; in the assay on LOX IMVI melanoma, 4.36 µM; in the assay on M14 melanoma, 4.4 µM. Further, the TGI stood at 4.24 µM in the assay with NCI/ADR-RES ovarian; 6.86 µM in the assay with SF-268 CNS; 3.64 µM in the assay with SK-MEL-5 melanoma; 9.3 µM in the assay on SK-OV-3 ovarian; 5.87 µM in the assay on T-47D breast; 5.85 µM in the assay with UACC-257 melanoma.
For `C/C(=N\NC(N)=S)c1nc2ncccc2[nH]1`, the TGI with ACHN renal, in the assay with CCRF-CEM leukemia, in the assay on HCT-116 colon, in the assay with HS 578T breast, with LOX IMVI melanoma and in the assay with M14 melanoma was above 100 µM throughout. Further, the TGI with NCI/ADR-RES ovarian, in the assay on SF-268 CNS, in the assay on SK-MEL-5 melanoma, in the assay with SK-OV-3 ovarian, in the assay on T-47D breast and in the assay with UACC-257 melanoma was above 100 µM throughout.
`COC(=O)c1ccccc1C1CN=NC12Cc1ccc3c(c1C2=O)CCC3` (stereo not given): the TGI in the assay with ACHN renal, with CCRF-CEM leukemia, in the assay with HCT-116 colon, with HS 578T breast, in the assay on LOX IMVI melanoma and with M14 melanoma was above 100 µM in each case. Moreover, the TGI in the assay with NCI/ADR-RES ovarian, in the assay on SF-268 CNS, with SK-MEL-5 melanoma, in the assay on SK-OV-3 ovarian, with T-47D breast and in the assay with UACC-257 melanoma was above 100 µM in each case.
`COc1ccc2[nH]c3c(c2c1)CC(=O)N1CCC[C@H](C1)CC31OCCCO1`: the TGI with ACHN renal, in the assay with CCRF-CEM leukemia, in the assay on HCT-116 colon, in the assay with HS 578T breast, in the assay on M14 melanoma and with NCI/ADR-RES ovarian was above 100 µM each time. Further, the TGI in the assay on SF-268 CNS, with SK-MEL-5 melanoma, in the assay with SK-OV-3 ovarian, in the assay with T-47D breast and in the assay on UACC-257 melanoma was above 100 µM in each case.
For the compound `CCNC(=S)NNC(=O)c1ccccc1Nc1ccccc1C(=O)NNC(=S)NCC`, the TGI in the assay with ACHN renal, in the assay on CCRF-CEM leukemia, with HCT-116 colon, with HS 578T breast, in the assay on LOX IMVI melanoma and with M14 melanoma was above 100 µM throughout. The TGI with NCI/ADR-RES ovarian, in the assay on SK-MEL-5 melanoma, with SK-OV-3 ovarian and in the assay with T-47D breast was above 100 µM each time.
`CCCN(CCC)C(=O)c1c(N2CCN(C)CC2)c2cccnc2n2c(C)cnc12`: the TGI with ACHN renal, in the assay on CCRF-CEM leukemia, with HCT-116 colon, in the assay with HS 578T breast, with LOX IMVI melanoma and with M14 melanoma was above 100 µM throughout. Also, the TGI with NCI/ADR-RES ovarian, with SF-268 CNS, in the assay with SK-MEL-5 melanoma, in the assay with T-47D breast and in the assay with UACC-257 melanoma was above 100 µM throughout.
As to `COc1ccc(-c2nnc3n(C)c4ccccc4n3c2=O)cc1`, the TGI in the assay on ACHN renal, in the assay with CCRF-CEM leukemia, in the assay on HCT-116 colon, in the assay on HS 578T breast, with LOX IMVI melanoma and in the assay on M14 melanoma was above 100 µM each time. The TGI in the assay with NCI/ADR-RES ovarian, with SF-268 CNS, with SK-MEL-5 melanoma, with T-47D breast and in the assay with UACC-257 melanoma was above 100 µM in each case.
